Source: patent publication US8338334B2, “Synergistic herbicidal composition containing fluroxypyr and quinclorac” (Dow AgroSciences, LLC, priority 2010, dated 2012)
Values joined by “and” are separate entries in the source; they are usually repeats but may differ in a detail not shown here. Identical values can stand only once.

Assays:
Test in all cases: Postemergence herbicidal activity in the greenhouse, visual weed control
Format in all cases: in vivo
Conditions in all cases: 21 DAA
[1] = system: broadleaf signalgrass (Brachiaria platyphylla; BRAPP)
Procedure: (§1) Seeds of the desired test plant species were planted in 80% mineral soil/20% grit planting mixture, which typically has a pH of 7.2 and an organic matter content of about 2.9 percent, in plastic pots with a surface area of 128 square centimeters (cm^2). The growing medium was steam sterilized. The plants were grown for 7-19 days in a greenhouse with an approximate 14-hour (h) photoperiod which was maintained at about 29° C. during the day and 26° C. during the night. Nutrients and water were added on a regular basis and supplemental lighting was provided with overhead metal halide 1000-Watt lamps as necessary. The plants were treated with postemergence foliar applications when they reached the third to fourth true leaf stage. All treatments were applied using a randomized complete block trial design, with 4 replications per treatment.
(§2) Treatments consisted of the compounds as listed in Table 1 for each compound applied alone and in combination. Formulated amounts of quinclorac and fluroxypyr-meptyl ester were placed in 60 milliliter (mL) glass vials and dissolved in a volume of 60 mL of a water solution containing Agri-dex crop oil concentrate in a 1% volume per volume (v/v) ratio. Compound requirements are based upon a 12 mL application volume at a rate of 187 liters per hectare (L/ha). Spray solutions of the mixtures were prepared by adding the stock solutions to the appropriate amount of dilution solution to form 12 mL spray solution with active ingredients in single and two way combinations. Formulated compounds were applied to the plant material with an overhead Mandel track sprayer equipped with 8002E nozzles calibrated to deliver 187 L/ha at a spray height of 18 inches (43 centimeters (cm)) above average plant canopy.
(§3) The treated plants and control plants were placed in a greenhouse as described above and watered by sub-irrigation to prevent wash-off of the test compounds. Treatments were rated at 21 days after application (DAA) as compared to the untreated control plants. Visual weed control was scored on a scale of 0 to 100 percent where 0 corresponds to no injury and 100 corresponds to complete kill.
(§4) All treatment results, both for the single product and mixtures, are an average of 4 replicates evaluated at 21 days after application, and the tank mix interactions are significant at the […] level.
(§5) Colby's equation was used to determine the herbicidal effects expected from the mixtures (Colby, S. R. Calculation of the synergistic and antagonistic response of herbicide combinations. Weeds 1967, 15, 20-22.).
(§6) The following equation was used to calculate the expected activity of mixtures containing two active ingredients, A and B: Expected=A+B−(A×B/100)

[2] = system: barnyardgrass (Echinochloa crus-galli; ECHCG)
Procedure: as §1, §2, §3, §4, §5, §6

[3] = system: Chinese sprangletop (Leptochloa chinensis; LEFCH)
Procedure: as §1, §2, §3, §4, §5, §6

[4] = fluroxypyr-meptyl 50 g ae/ha alone
[5] = fluroxypyr-meptyl 100 g ae/ha alone
[6] = fluroxypyr-meptyl 200 g ae/ha alone

For `O=C(O)c1c(Cl)ccc2cc(Cl)cnc12` [Quinclorac, 3,7-dichloro-8-quinolinecarboxylic acid], the “% Control BRAPP Ob (observed value)” value ([1]; quinclorac 26 g ai/ha alone) was 5%, the “% Control BRAPP Ob (observed value)” value ([1]; quinclorac 53 g ai/ha alone) was 6% and the “% Control BRAPP Ob (observed value)” value ([1]; quinclorac 110 g ai/ha alone) was 5%. For the same compound, the “% Control BRAPP Ob (observed value)” value ([1]; quinclorac 220 g ai/ha alone) was 26%, the “% Control ECHCG Ob (observed value)” value ([2]; quinclorac 26 g ai/ha alone) was 5% and the “% Control ECHCG Ob (observed value)” value ([2]; quinclorac 53 g ai/ha alone) was 6%. The “% Control ECHCG Ob (observed value)” value ([2]; quinclorac 110 g ai/ha alone) was 31%, the “% Control ECHCG Ob (observed value)” value ([2]; quinclorac 220 g ai/ha alone) was 65% and the “% Control LEFCH Ob (observed value)” value ([3]; quinclorac 26 g ai/ha alone) was 5%. The “% Control LEFCH Ob (observed value)” value ([3]; quinclorac 53 g ai/ha alone) was 10%, the “% Control LEFCH Ob (observed value)” value ([3]; quinclorac 110 g ai/ha alone) was 15% and the “% Control LEFCH Ob (observed value)” value ([3]; quinclorac 220 g ai/ha alone) was 11%.

In the case of `CCCCCCC(C)OC(=O)COc1nc(F)c(Cl)c(N)c1Cl` (centres unmarked) [Fluroxypyr-meptyl], the “% Control BRAPP Ob (observed value)” value [1, 4] is reported as 5%, the “% Control BRAPP Ob (observed value)” value [1, 5] is reported as 1% and the “% Control BRAPP Ob (observed value)” value [1, 6] is reported as 5%. The “% Control ECHCG Ob (observed value)” value [2, 4] was 0%, the “% Control ECHCG Ob (observed value)” value [2, 5] was 11% and the “% Control ECHCG Ob (observed value)” value [2, 6] was 6%. For the same compound, the “% Control LEFCH Ob (observed value)” value [3, 5] was 50% and the “% Control LEFCH Ob (observed value)” value [3, 6] was 41% and 42%.
